Assays:
Assay type in all cases: cell-based
[1] = biological target: T1, progesterone receptor (PRB) (Homo sapiens, UniProt P06401); assay: Progestogen activity assay using progesterone receptor transactivation; settings: 100 nM, AH3-luc reporter, COS7
T1 construct: expressed in transfected cells; host or cells: COS 7
T1 sequence (P06401 1-933): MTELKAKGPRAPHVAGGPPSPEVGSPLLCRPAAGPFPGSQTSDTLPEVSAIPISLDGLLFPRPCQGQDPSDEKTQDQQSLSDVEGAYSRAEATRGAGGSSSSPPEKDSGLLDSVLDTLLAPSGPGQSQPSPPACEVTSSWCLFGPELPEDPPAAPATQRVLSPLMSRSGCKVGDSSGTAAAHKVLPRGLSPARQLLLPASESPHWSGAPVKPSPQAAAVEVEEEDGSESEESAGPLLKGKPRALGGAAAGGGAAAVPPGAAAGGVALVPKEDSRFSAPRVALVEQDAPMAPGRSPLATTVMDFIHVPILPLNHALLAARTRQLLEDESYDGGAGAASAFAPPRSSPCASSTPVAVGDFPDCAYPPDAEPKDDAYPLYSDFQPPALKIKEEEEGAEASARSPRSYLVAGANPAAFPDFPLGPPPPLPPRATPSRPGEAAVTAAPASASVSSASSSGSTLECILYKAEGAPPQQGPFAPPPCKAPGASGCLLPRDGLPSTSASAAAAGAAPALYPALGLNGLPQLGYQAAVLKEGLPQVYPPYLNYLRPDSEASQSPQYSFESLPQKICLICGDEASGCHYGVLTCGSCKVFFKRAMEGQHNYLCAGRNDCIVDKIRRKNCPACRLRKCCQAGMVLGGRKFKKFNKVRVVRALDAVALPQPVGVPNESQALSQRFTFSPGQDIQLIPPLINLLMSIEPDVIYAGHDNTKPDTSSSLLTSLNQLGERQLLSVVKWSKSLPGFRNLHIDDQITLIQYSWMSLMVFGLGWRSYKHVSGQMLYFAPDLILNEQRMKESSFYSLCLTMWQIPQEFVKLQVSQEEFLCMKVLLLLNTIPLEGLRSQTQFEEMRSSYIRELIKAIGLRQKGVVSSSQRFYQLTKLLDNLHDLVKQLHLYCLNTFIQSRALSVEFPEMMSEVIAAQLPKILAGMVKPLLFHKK
Excerpt: As the GR LBD has strong homology with the PR LBD there is a chance that any of the tested steroids of FIGS. 1 and 2A that activate one of these receptors may also activate the other. The presence of illegitimate progestogen activity associated with the steroids of FIGS. 1 and 2A was examined using a transactivation assay with the PR instead of the GR.
The PR was artificially expressed in a cell line lacking endogenous PR and a GRE “driving” a luciferase reporter gene was used to measure ligand dependent activation.
COS7 cells were transfected with 1 μg pSEO-PRB and 3 μg AH3-Luc per 10 cm tissue culture dish. The cells were plated out in to 24 well plates after transfection and the steroids of FIGS. 1 and 2A were added immediately to generate a final concentration of 100 nM. After 18 hour incubation the cells were lysed and a luciferase assay was performed.

glucocorticoid receptor [2] = biological target: T2, glucocorticoid receptor (Homo sapiens, UniProt P04150); assay: Type II antagonist activity assay: competition of dexamethasone transactivation; set-up: expressed in transfected cells; host or cells: COS 7 (African green monkey kidney, deficient in endogenous GR); settings: 1, 10, 100 nM; 1 nM dexamethasone
T2 sequence (P04150 1-777): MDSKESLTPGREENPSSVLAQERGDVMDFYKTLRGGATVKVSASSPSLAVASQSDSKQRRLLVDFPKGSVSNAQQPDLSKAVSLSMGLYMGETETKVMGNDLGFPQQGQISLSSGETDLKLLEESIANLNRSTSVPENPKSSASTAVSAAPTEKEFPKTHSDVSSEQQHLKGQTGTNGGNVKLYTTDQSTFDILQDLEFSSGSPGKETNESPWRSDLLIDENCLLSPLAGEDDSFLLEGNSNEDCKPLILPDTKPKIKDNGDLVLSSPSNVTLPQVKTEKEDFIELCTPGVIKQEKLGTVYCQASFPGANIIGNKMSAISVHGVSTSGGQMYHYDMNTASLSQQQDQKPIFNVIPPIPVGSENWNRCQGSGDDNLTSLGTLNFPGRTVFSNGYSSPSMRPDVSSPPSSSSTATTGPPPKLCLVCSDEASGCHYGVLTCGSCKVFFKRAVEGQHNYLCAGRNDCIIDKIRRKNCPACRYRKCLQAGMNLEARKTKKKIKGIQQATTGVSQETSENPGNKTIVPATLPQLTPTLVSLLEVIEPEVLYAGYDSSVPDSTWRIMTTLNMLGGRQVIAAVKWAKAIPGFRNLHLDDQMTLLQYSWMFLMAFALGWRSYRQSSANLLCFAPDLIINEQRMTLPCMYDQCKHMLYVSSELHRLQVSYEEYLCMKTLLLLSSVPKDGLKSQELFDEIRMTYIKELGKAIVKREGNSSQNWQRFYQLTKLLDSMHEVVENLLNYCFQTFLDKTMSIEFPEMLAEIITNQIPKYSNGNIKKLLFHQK
Experimental: A type II antagonist should be able to compete agonist activity. As an antagonist has no ability to transactivate, competition can be measured by inhibition of an agonist in a transactivation assay.
As with the standard transactivation assay previously described, the GR was artificially expressed in a cell line lacking endogenous GR and a GRE “driving” a luciferase reporter gene was used to measure ligand dependent activation. COS7 cells were transfected with 1 μg pcDNA3-GR and 3 μg AH3-Luc per 10 cm tissue culture dish. The cells were plated out in to 24 well plates after transfection and the steroids were added immediately. […] Certain steroids from FIG. 2A were added at the same concentration to all sample wells. After 18 hour incubation the cells were lysed and a luciferase assay was performed.

[3] = biological target: T3, GR ligand binding domain / SRC-1 (Homo sapiens, UniProt P04150); assay: SRC-1 association assay by mammalian two-hybrid analysis; settings: 100 nM
T3 construct: expressed in transfected cells
T3 sequence (P04150 524-758 limits assumed): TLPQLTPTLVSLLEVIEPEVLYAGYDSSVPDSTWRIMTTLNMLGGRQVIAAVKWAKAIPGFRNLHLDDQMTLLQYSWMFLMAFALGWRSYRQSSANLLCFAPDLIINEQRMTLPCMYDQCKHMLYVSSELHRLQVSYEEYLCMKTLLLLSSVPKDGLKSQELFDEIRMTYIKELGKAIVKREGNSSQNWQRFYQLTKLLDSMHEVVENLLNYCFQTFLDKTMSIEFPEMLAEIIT
Excerpt: SRC-1 is an important co-activator of GR action that associates with the GR in a ligand dependant manner. The ability of SRC-1 to associate with the GR in this manner can be used as a measure of potency of ligand mediated transactivation. To perform this assay plasmids that generated VP16-GR ligand binding domain (LBD) and GAL4-SRC-1 fusion proteins and a GAL4 binding luciferase reporter gene construct were transfected into in a cell line lacking GR and deficient in endogenous SRC-1. The GAL4-SRC-1 fusion protein could bind to specific sites upstream of the luciferase reporter gene construct. If the SRC-1 fusion protein associated with the ligand bound VP16-GRLBD fusion protein then the VP-16 activation domain augmented the luciferase gene expression.

glucocorticoid receptor [4] = biological target: T2, glucocorticoid receptor; assay: Transrepression assay using artificially expressed glucocorticoid receptor and P65 in the COS 7 cell line (NRE luciferase); set-up: expressed in transfected cells; host or cells: COS 7 (African green monkey kidney, deficient in endogenous GR); settings: 1, 10 and 100 nM
Experimental: (§1) All transfections were performed using lipofectamine plus (Gibco BRL), according to the manufacturers' instructions, as previously described^1. Briefly, all cells were seeded at 5×10^5 per 10 cm tissue culture plate 18 hours before transfection, the next day the relevant plasmids were mixed with serum free medium and “Plus” reagent (Gibco BRL) and incubated for 15 mins, lipofectamine reagent was added and the mix was incubated for a further 15 mins, this mix was added to the cells on serum free medium in the 10 cm tissue culture plates and left for 3 hours, the cells were then trypsinised and divided into 24 well plates, the cells were left to recover overnight and were treated with steroid for 16 hours before harvest. All experiments were performed from one transfection in triplicate and on separate occasions with similar results.
(§2) The firefly luciferase gene catalyses the production of light from the substrate luciferin. When plasmid constructs containing this gene are transfected into cell lines the activity of the gene can be assessed by the intensity of the luminesence. The luciferase assay yields luminescence through an ATP-dependent oxidation of luciferin the amount of light produced can be measured by a luminometer and is a measure of gene activity (Davis, 1996). Light intensity was measured in a Luminometer (LB 9501, Berthold). The light intensity should be proportional to luciferase concentration in the range of 10^−16M (10 μg/L) to 10^−8M (1 mg/L). To measure the luminescence of the treated cells 150 μl of 1× reporter lysis buffer (RLB: 25 mM Tris phosphate pH7.8, 10 mM MgCl2, 15% Glycerol, 1% Triton, 1 mM EDTA) was added to the 24 well plates to lyse the cells and incubated at room temperature for 30 mins whilst being shaken. Then 100 μl of the room temperature cell extract were mixed with 100 μl of room temperature Luciferase Assay Reagent (LAR: 1 mM ATP, 0.3 mM D-Luciferin, 66% RLB). This reaction was mixed in a luminometer (LB 9501, Berthold) and the light produced was measured for a period of 5 seconds.
To perform this assay the GR and p65 were artificially expressed in a cell line lacking GR and deficient in endogenous P65. The ability of P65 to activate an NFkB response element (NRE) “driving” a luciferase reporter gene could then be repressed by GR in a ligand dependent manner and, therefore, used to measure transrepression.
COS7 cells were transfected with 1 μg pcDNA3-GR and 3 μg NRE-Luc and 200 ng p65 per 10 cm tissue culture dish. The cells were plated out in to 24 well plates after transfection and left for 18 hours to recover before the steroids of FIGS. 1 and 2A were added. After another 18 hour incubation the cells were lysed and a luciferase assay was performed.

glucocorticoid receptor [5] = biological target: T2, glucocorticoid receptor; assay: Transactivation assay using artificially expressed glucocorticoid receptor in the COS 7 monkey kidney cell line (GRE luciferase); set-up: expressed in transfected cells; host or cells: COS 7 (African green monkey kidney, deficient in endogenous GR); settings: 1, 10, 10 and 500 nM; FIG. 5
Experimental: as §1, §2
In this assay the GR was artificially expressed in a cell line lacking endogenous GR and a glucocorticoid response element (GRE) “driving” a luciferase reporter gene was used to measure ligand dependent activation.
COS7 cells were transfected with 1 μg pcDNA3-GR and 3 μg AH3-Luc per 10 cm tissue culture dish. The cells were plated out in to 24 well plates after transfection and the steroids were added immediately. After 18 hour incubation the cells were lysed and a luciferase assay was performed.

Compound | PRB reporter gene activation [1] | also measured
CC(=O)[C@H]1CC[C@H]2[C@@H]3CCC4=CC(=O)CC[C@]4(C)[C@H]3CC[C@]12C [progesterone, reference compound] | strong induction of the reporter gene | 
CNC(=O)C1(O)C(C)CC2C3CCC4=CC(=O)C=CC4(C)C3(F)C(O)CC21C (stereo not shown) [Compound M] | slightly increased reporter gene activation compared to that of dexamethasone | 
CC#C[C@]1(O)CC[C@H]2[C@@H]3CCC4=CC(=O)CCC4=C3[C@@H](c3ccc(N(C)C)cc3)C[C@@]21C [RU486, reference compound] |  | maximal repression of transactivation (glucocorticoid receptor [2]): ~50%
CC1CC2C3CCC4=CC(=O)C=CC4(C)C3(F)C(O)CC2(C)C1(O)C(=O)COC(=O)Nc1ccccc1 (stereo not shown) [Compound N] | slightly increased reporter gene activation compared to that of dexamethasone | 
CC1CC2C3CCC4=CC(=O)C=CC4(C)C3(F)C(O)CC2(C)C1(O)C(=O)COC(=O)Nc1ccc(F)cc1 (stereo not shown) [Compound S] | slightly increased reporter gene activation compared to that of dexamethasone | SRC-1 recruitment at the highest concentration tested [3]: significant response
CC1CC2C3CCC4=CC(=O)C=CC4(C)C3(F)C(O)CC2(C)C1(O)C(=O)NCc1ccccc1 (stereo not shown) [Compound K] | slightly increased reporter gene activation compared to that of dexamethasone | SRC-1 recruitment at the highest concentration tested [3]: significant response
CCCN(CCC)C(=O)C1(O)C(C)CC2C3CCC4=CC(=O)C=CC4(C)C3(F)C(O)CC21C (stereo not shown) [P] |  | repression of P65 stimulation of an NFkB response element compared with dexamethasone (glucocorticoid receptor [4]): no effect at 1 and 10 nM with only a negligible repression at 100 nM; transactivation potential (luminescence) compared to dexamethasone, repeat experiment (glucocorticoid receptor [5]): “right shifted response” and a reduced maximum compared to dexamethasone

Reference: patent US7763596B2, “Selective glucocorticoid receptor agonists” (The University of Manchester, priority 2000, dated 2010)
